One assay deals with LNCap cells. The experiment in a line: Cell viability assay (CellTiterGlo). It is filed as cell-based. The note with it: Homo sapiens, 144 h. (Cellular ATP, detected with luciferase, serves as a proxy for viable cell number.)
For a further assay, the system named is T47D cells. The experiment in a line: Cell viability assay (CellTiterGlo). The assay is classed as cell-based. The note with it: Homo sapiens, 144 h, read-out: T47D (IC50, nM).
The next assay relates to IEC6 cells. In words: Cell viability assay (CellTiterGlo). The note with it: Rattus norvegicus, IEC-6, 144 h, read-out: IEC-6 (IC50, nM).
Assay [1] concerns the target T1, ligand binding domain of the glucocorticoid receptor (HEK293 cells stably expressing) (Homo sapiens, UniProt P04150).
T1 sequence (P04150 524-758 limits assumed): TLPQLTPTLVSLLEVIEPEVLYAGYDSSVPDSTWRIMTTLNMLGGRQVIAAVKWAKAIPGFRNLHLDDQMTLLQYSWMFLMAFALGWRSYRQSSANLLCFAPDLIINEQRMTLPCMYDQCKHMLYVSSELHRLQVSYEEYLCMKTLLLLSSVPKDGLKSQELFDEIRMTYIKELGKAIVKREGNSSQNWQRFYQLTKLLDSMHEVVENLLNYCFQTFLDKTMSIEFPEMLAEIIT
In words: GR antagonism assay (luciferase reporter).

Assay [2] has as its target T2, GR (cytosol from IM-9 cells) (Homo sapiens, UniProt P04150).
T2 sequence (P04150 1-777): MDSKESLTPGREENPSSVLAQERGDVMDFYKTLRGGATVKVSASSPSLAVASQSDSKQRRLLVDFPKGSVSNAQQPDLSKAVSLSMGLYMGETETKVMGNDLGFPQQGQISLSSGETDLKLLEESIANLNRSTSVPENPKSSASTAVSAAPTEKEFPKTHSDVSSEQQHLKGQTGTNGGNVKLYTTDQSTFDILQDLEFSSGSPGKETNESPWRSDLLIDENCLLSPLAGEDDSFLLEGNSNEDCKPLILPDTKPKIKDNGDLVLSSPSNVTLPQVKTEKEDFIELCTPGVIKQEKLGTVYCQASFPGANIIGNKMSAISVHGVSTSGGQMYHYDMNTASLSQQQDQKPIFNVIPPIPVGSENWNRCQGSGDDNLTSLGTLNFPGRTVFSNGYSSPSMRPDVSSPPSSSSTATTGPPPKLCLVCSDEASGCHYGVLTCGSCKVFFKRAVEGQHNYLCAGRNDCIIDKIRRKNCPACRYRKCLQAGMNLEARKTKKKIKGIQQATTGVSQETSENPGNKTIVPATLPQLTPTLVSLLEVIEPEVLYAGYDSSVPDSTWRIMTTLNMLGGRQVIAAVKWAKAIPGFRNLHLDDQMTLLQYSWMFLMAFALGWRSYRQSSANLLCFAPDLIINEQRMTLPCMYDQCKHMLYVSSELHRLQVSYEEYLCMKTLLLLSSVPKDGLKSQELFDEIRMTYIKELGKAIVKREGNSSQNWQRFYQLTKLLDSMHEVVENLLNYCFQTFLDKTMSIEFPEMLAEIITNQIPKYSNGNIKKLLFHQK
In words: GR binding assay (3H-Dexamethasone displacement).

In assay [3] the target is T3, AR (cytosol from LnCaP cells) (Homo sapiens, UniProt P10275, T878A).
T3 sequence (P10275 1-920 T878A): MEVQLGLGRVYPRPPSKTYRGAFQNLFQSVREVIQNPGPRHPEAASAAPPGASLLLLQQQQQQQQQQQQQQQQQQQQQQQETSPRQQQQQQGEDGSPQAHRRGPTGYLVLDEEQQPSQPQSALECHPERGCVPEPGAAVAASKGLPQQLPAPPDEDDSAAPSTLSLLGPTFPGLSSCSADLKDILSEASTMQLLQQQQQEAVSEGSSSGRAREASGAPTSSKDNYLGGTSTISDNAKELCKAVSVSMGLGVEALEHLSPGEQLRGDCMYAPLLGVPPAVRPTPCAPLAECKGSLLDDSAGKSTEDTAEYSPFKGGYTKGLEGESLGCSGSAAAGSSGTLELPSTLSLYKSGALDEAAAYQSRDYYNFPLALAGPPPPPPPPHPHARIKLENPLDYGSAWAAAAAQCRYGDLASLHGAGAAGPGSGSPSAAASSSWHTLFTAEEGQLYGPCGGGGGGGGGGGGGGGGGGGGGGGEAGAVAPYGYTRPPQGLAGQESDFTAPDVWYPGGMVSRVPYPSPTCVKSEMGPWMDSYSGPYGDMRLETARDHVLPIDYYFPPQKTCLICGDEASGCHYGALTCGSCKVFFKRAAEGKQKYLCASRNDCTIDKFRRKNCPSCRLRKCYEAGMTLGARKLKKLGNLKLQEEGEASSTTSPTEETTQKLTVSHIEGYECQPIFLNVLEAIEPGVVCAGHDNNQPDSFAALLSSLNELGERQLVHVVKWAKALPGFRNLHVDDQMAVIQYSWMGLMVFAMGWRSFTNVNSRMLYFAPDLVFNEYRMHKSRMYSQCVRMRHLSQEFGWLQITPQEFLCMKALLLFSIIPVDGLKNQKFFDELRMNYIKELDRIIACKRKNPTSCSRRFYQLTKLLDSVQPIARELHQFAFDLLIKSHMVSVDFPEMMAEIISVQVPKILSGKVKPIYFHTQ
In words: AR binding assay (3H-R1881 displacement).
Protocol: The plate was then centrifuged at 3000 rpm for 30 minutes at 4° C.

The target of assay [4] is T4, full-length androgen receptor (HEK293 cells stably expressing) (Homo sapiens, UniProt P10275).
T4 sequence (P10275 1-920): T3 sequence (P10275 1-920 T878A) with A878T
The experiment in a line: AR antagonism assay (luciferase reporter). For orientation: Reporter assays use an easily measured gene product as a stand-in for the process of interest.

For the next assay, the system named is 22Rv1 cells. In words: Cell viability assay (CellTiterGlo). Conditions: Homo sapiens, 22Rv1, 144 h, read-out: 22RV1 (IC50, nM).
The target of assay [5] is T5, Progesterone PR-B receptors from human breast carcinoma T47D cells (Homo sapiens, UniProt P06401).
T5 sequence (P06401 1-933): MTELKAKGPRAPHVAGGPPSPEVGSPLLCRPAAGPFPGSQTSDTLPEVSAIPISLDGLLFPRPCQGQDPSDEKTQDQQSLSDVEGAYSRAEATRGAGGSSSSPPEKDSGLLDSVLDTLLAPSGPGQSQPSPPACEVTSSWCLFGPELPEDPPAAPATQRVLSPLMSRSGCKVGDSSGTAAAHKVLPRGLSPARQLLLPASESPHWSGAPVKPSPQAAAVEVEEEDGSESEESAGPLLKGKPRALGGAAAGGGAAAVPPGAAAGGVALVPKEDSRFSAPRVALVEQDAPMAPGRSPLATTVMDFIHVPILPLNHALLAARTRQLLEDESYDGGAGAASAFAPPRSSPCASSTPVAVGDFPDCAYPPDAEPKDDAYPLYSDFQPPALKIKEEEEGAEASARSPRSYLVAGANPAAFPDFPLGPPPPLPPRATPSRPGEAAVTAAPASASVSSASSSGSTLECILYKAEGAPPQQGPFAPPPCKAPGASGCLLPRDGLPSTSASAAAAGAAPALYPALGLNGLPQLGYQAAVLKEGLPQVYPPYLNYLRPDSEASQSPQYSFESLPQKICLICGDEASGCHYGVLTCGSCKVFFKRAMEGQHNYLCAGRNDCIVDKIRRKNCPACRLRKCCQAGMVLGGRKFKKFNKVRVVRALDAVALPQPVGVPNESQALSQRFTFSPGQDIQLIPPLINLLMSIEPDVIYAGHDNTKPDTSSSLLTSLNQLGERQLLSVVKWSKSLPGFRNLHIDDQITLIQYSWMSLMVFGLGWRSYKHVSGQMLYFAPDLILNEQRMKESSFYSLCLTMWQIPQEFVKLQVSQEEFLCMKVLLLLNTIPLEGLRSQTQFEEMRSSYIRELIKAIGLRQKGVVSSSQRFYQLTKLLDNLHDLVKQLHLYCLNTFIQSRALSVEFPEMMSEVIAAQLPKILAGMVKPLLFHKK
The experiment in a line: PR binding assay ([3H] Progesterone displacement).

SMILES strings stand for the structures. Positions count from the first letter of the chain named. Like-named read-outs stand apart in the source and are kept apart here.

This note sets out measurements from US20260102501A1, “ANTI-CANCER NUCLEAR HORMONE RECEPTOR-TARGETING COMPOUNDS” (Nuvation Bio Inc., priority 2022, published 2026).

Protocol for 22Rv1 cells: (§1) Cell viability assay: LNCap, 22Rv1, MCF7, MDAMB361, T47D, and IEC6 cells were seeded at a density of 500-2000 cells/well in 96 well plates, and a ‘T0’ (timepoint 0) was included along with the assay plate. The plates were then incubated at 37° C., 5% CO2 in a cell culture incubator overnight. On the next day, the ‘T0’ plate was assayed using CellTiterGlo (Promega, Inc) according to the manufacturer's instructions. The appropriate compounds were diluted in DMSO and added to the assay plate (final DMSO concentration of 0.1-0.2%) on the next day. The assay plates were incubated for 6 days at 37° C., 5% CO2. After the incubation period, the plates were assayed using CellTiterGlo (Promega, Inc) according to the manufacturer's instructions and luminescence was read on the En Vision plate reader. […] GraphPadPrism was used to analyze the data and determine GI50/IC50 values.
Protocol for IEC6 cells: as §1

`CC#C[C@]1(O)CC[C@H]2[C@@H]3CCC4=CC(=O)CCC4=C3[C@@H](c3ccc(N(C)CCCCCCN4CCN(C(=O)Oc5ccc6nc7c(cc6c5CN(C)C)Cn5c-7cc6c(c5=O)COC(=O)[C@]6(O)CC)CC4)cc3)C[C@@]21C` [Compound 29, (S)-10-((Dimethylamino)methyl)-4-ethyl-4-hydroxy-3,14-dioxo-3,4,12,14-tetrahydro-1H-pyrano[3′,4′:6,7]indolizino[1,2-b]quinolin-9-yl 4-(6-((4-((8S,11R,13S,14S,17S)-17-hydroxy-13-methyl-3-oxo-17-(prop-1-yn-1-yl)-2,3,6,7,8,11,12,13,14,15,16,17-dodecahydro-1H-cyclopenta[a]phenanthren-11-yl)phenyl)(methyl)amino)hexyl)piperazine-1-carboxylate]: the half-inhibitory concentration (IC50) (as a rule, the point on the concentration scale where inhibition reaches its midpoint) with LNCap cells (read-out: LNCap (IC50, nM)) is 10 to 100 nM; in the assay with T47D cells, 10 to 100 nM; in the assay with IEC6 cells it was 101 to 1000 nM; in [1] it was below 10 nM; in [2], below 10 nM.
Take `CC[C@@]1(O)C(=O)OCc2c1cc1n(c2=O)Cc2c-1nc1cc(F)c(C)c3c1c2[C@@H](NC(=O)OCc1ccc(NC(=O)[C@H](CCCNC(N)=O)NC(=O)[C@@H](NCCCCCCN(C)c2ccc([C@H]4C[C@@]5(C)[C@@H](CC[C@]5(OC(C)=O)C(C)=O)[C@@H]5CCC6=CC(=O)CCC6=C54)cc2)C(C)C)cc1)CC3` [Compound 59]: the 50% inhibitory concentration (IC50) with LNCap cells (read-out: LNCap (IC50, nM)) is 10 to 100 nM; in the assay on T47D cells it was 10 to 100 nM; in assay [3] it was 101 to 1000 nM; in [4] it was 101 to 1000 nM; in assay [2], 10 to 100 nM.
`CC[C@@]1(O)C(=O)OCc2c1cc1n(c2=O)Cc2cc3c(CN4CCN(CCCCCCC5CCN(c6ccc(C(=O)N[C@H]7CC[C@H](N(C)c8ccc(C#N)c(Cl)c8)CC7)nn6)CC5)CC4)c(O)ccc3nc2-1` [Compound 56, N-((1r,4r)-4-((3-chloro-4-cyanophenyl)(methyl)amino)cyclohexyl)-6-(4-(6-(4-(((S)-4-ethyl-4,9-dihydroxy-3,14-dioxo-3,4,12,14-tetrahydro-1H-pyrano[3′,4′:6,7]indolizino[1,2-b]quinolin-10-yl)methyl)piperazin-1-yl)hexyl)piperidin-1-yl)pyridazine-3-carboxamide]: the IC50 was 10 to 100 nM in the assay on LNCap cells (6 days incubation, CellTiterGlo, read-out: LNCap (IC50)); 10 to 100 nM with 22Rv1 cells; 101 to 1000 nM with IEC6 cells; 101 to 1000 nM in [3]; 101 to 1000 nM in assay [4]; 10 to 100 nM in [5].
Turning to `CC[C@@]1(O)C(=O)OCc2c1cc1n(c2=O)Cc2cc3c(CN(C)C)c(OC(=O)N4CCN(CCCCCCNc5ccc([C@H]6C[C@@]7(C)[C@@H](CC[C@]7(OC(C)=O)C(C)=O)[C@@H]7CCC8=CC(=O)CCC8=C76)cc5)CC4)ccc3nc2-1` [Compound No. 61, (S)-10-((dimethylamino)methyl)-4-ethyl-4-hydroxy-3,14-dioxo-3,4,12,14-tetrahydro-1H-pyrano[3′,4′:6,7]indolizino[1,2-b]quinolin-9-yl 4-(6-((4-((8S,11R,13S,14S,17R)-17-acetoxy-17-acetyl-13-methyl-3-oxo-2,3,6,7,8,11,12,13,14,15,16,17-dodecahydro-1H-cyclopenta[a]phenanthren-11-yl)phenyl)amino)hexyl)piperazine-1-carboxylate], the half-inhibitory concentration (IC50) with LNCap cells (read-out: LNCap (IC50, nM)) was 101 to 1000 nM; in the assay with T47D cells, 10 to 100 nM; in [3], 10 to 100 nM; in assay [4] it was 101 to 1000 nM; in assay [2], below 10 nM.
